# Results published in patent US20260159520A1, “HETEROBIFUNCTIONAL COMPOUNDS AND METHODS OF TREATING DISEASE” (Halda Therapeutics OpCo, Inc., priority 2022, published 2026).
# How the values were obtained:
# Assay type in all cases: cell-based
# [1] = system: T-Rex 293 cell line SC3 cells having increased expression of androgen receptor protein; assay: Cellular growth inhibition, T-Rex 293 SC3 cells with doxycycline (increased androgen receptor expression); conditions: with 10 ng/mL doxycycline (increased androgen receptor), 72 hours, CellTiter-Glo 2.0
# How it was run: (§1)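 Growth inhibition is measured in an inducible AR-expressing T-Rex 293 clone, SC3, cultured with or without 10 ng/mL doxycycline in hormone-depleted medium. Test compounds are applied for 72 hours. GI50 values derive from CellTiter-Glo 2.0 signal fitted by four-parameter regression.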
# [2] = system: T-Rex 293 cell line SC3 cells lacking increased expression of androgen receptor protein; assay: Cellular growth inhibition, T-Rex 293 SC3 cells without doxycycline; conditions: not exposed to doxycycline, 72 hours, CellTiter-Glo 2.0
# How it was run: as §1
# [3] = system: T-Rex 293 cell line SC cells having increased expression of progesterone receptor isoform B protein; assay: Cellular growth inhibition, T-Rex 293 SC cells with doxycycline (increased progesterone receptor isoform B expression); conditions: with 10 ng/mL doxycycline (increased progesterone receptor isoform B), 72 hours, CellTiter-Glo 2.0
# Protocol: (§2) The following types of cells were prepared for this experiment: (i) a T-Rex 293 cell line having increased expression of progesterone receptor isoform B protein due to exposure to doxycycline and (ii) a T-Rex 293 cell line lacking increased expression of progesterone receptor isoform B protein. Ability of the test compounds to inhibit proliferation of the foregoing cell types was evaluated according to the procedures set forth below.
# (§3) The doxycycline-inducible progesterone receptor isoform B protein expressing cell line was established using the following protocol: T-Rex 293 cells were purchased from Invitrogen (Cat #R71007) and transfected using Lipofectamine 2000 with the wild-type progesterone receptor B protein sequence cloned into the pcDNA4/TO vector. Transfected cells were selected using 400 μg/mL Zeocin (Invitrogen Cat #R25001). Following selection, single clones were raised and maintained in Dulbecco's Modified Eagle Medium (DMEM) supplemented with 10% w/w Tetracycline-free fetal bovine serum (FBS) and 250 μg/mL Zeocin. Clones were analyzed for expression of progesterone receptor isoform B protein in the presence and absence of 10 ng/mL doxycycline (Sigma Cat #D9891), and a single doxycycline-inducible clone (hereinafter “SC”) was selected for use in downstream assays.
# (§4) The SC cells were seeded on poly-D-lysine coated, black clear-bottom 384-well plates at 2500/well, in 25 μL Phenol Red Free Dulbecco's Modified Eagle Medium (DMEM) supplemented with 10% w/w charcoal-dextran treated fetal bovine serum (FBS) and 1% w/w pen-strep, with or without 10 ng/mL doxycycline. Pen-Strep is a commercially available mixture of penicillin G and streptomycin, which is used in mammalian cell culture media to prevent bacterial contamination. Phenol Red Free Dulbecco's Modified Eagle Medium (DMEM) supplemented with 10% w/w charcoal-dextran treated fetal bovine serum (FBS) and 1% w/w pen-strep, with or without 10 ng/mL doxycycline is herein referred to as Treatment Medium. Following seeding of cells in the plates, the plates were spun at 300×g for 30 seconds, then equilibrated to room temperature for 30 minutes, and then deposited in a humidified tissue culture incubator maintained at 37° C. with 5% CO2.
# (§5) At 24 hours after seeding of the cells, dilutions of test compound were prepared in DMSO and dissolved in Treatment Medium, to achieve a final DMSO concentration of 0.5% w/w, thereby providing the Test Compound Solution. A 25 μL aliquot of the Test Compound Solution was added to cells in the well plates. An equal volume of a solution containing DMSO and Treatment Medium was used as a negative control. Following treatment of cells with Test Compound Solution or said equal volume of a solution containing DMSO and Treatment Medium, the plates were spun at 300×g for 30 seconds, and then left in an incubator for 72 hours.
# (§6) At the end of the treatment duration, cell viability was quantified with CellTiter-Glo 2.0 reagent (Promega Cat #G9243). For this purpose, plates were equilibrated to room temperature for 30 minutes, and then 25 μL of CellTiter-Glo 2.0 reagent was added to cells in the plate wells. Plates were then agitated on a shaker for two minutes at 500 rpm and subsequently incubated at room temperature for 10 minutes. Following incubation, the plates were spun at 3000×g for 30 seconds, then sealed with an optical adhesive cover, and luminescence readings were measured with an EnVision Plate Reader (Perkin Elmer).
# (§7) Data was normalized using zero luminescence for baseline. A four-parameter non-linear regression curve fit was applied to dose-response data in GraphPad Prism data analysis software to determine the half-maximal growth inhibitory concentration (GI50) for each test compound.
# [4] = system: T-Rex 293 cell line SC cells lacking increased expression of progesterone receptor isoform B protein; assay: Cellular growth inhibition, T-Rex 293 SC cells without doxycycline; conditions: not exposed to doxycycline, 72 hours, CellTiter-Glo 2.0
# Protocol: as §2, §3, §4, §5, §6, §7
# VCaP cells = assay: Cellular growth inhibition assay for VCaP cells; conditions: Homo sapiens, 72 hours, CellTiter-Glo 2.0
# T47D cells = assay: Cellular growth inhibition assay for T47D cells; conditions: Homo sapiens, 72 hours, CellTiter-Glo 2.0
# How it was run: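 Growth inhibition as GI50, fitted with four parameters to CellTiter-Glo luminescence after 72 h of compound exposure (0.5% DMSO). Cells were T47D, grown in insulin-supplemented (0.2 units/mL) DMEM with 10% FBS and treated one day post-seeding.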
SMILES,GI50 [1],GI50 [2],GI50 [3],GI50 [4],GI50 (VCaP cells),GI50 (T47D cells)
"CCc1cnn2c(NCc3ccc(OCCOCCOCCN(C)c4ncc(C(=O)N[C@H]5C(C)(C)[C@H](Oc6ccc(C#N)c(Cl)c6)C5(C)C)cn4)nc3)cc(N3CCCC[C@H]3CCO)nc12 [Compound I-2, N-((1r,3r)-3-(3-chloro-4-cyanophenoxy)-2,2,4,4-tetra-methylcyclobutyl)-2-((2-(2-(2-((5-(((3-ethyl-5-((S)-2-(2-hydroxyethyl)piperidin-1-yl)pyrazolo[1,5-a]pyrimidin-7-yl)amino)methyl)pyridin-2-yl)oxy)ethoxy)ethoxy)ethyl)(methyl)amino)pyrimidine-5-carboxamide]",100 to 1000 nM,100 to 1000 nM,< 500 nM,< 500 nM,,
CCc1cnn2c(NCc3ccc(OCCOCCOCCOCCOCCOCCOCCOC4CCN(c5ncc(C(=O)N[C@H]6C(C)(C)[C@H](Oc7ccc(C#N)c(Cl)c7)C6(C)C)cn5)CC4)nc3)cc(N3CCCC[C@H]3CCO)nc12 [Compound I-10],< 100 nM,100 to 1000 nM,< 500 nM,< 500 nM,< 100 nM,
CC1(C)[C@H](NC(=O)c2cnc(N3CCC(OCCOCCOCCNS(=O)(=O)c4ccc(Nc5ncc(Br)c(Nc6cccc(F)c6C(N)=O)n5)cc4)CC3)nc2)C(C)(C)[C@H]1Oc1ccc(C#N)c(Cl)c1 [Compound I-14],> 3500 nM,> 3500 nM,> 3000 nM,> 3000 nM,,500 to 1500 nM
CCc1cnn2c(NCc3ccc(OCCCCOC4CCN(c5ncc(C(=O)N[C@H]6C(C)(C)[C@H](Oc7ccc(C#N)c(Cl)c7)C6(C)C)cn5)CC4)nc3)cc(N3CCCC[C@H]3CCO)nc12 [Compound I-27],100 to 1000 nM,> 3500 nM,< 500 nM,> 3000 nM,,
